Earlier results in publication PMC7797166 (Journal of thoracic oncology : official publication of the …, 2020).
Where two headings read alike, the source gives them in different places.

Test system: T cell
Settings: ref Li et al[31], cited from earlier work

| Sequence | tetramer assay (HLA-A*31:01) | tetramer assay (HLA-A*11:01) |
| --- | --- | --- |
| HVKITDFGR | positive |  |
| KITDFGRAK |  | negative |
